We go through 23 compounds from US4206088A, “Solid conducting agent” (priority 1978, dated 1980).

For data set [1] the following is noted: as determined at 20° C.; cited from earlier work.
The next data set can be described thus: volume resistivity. The data set is classed as physicochemical. The settings on record: 23° C., 50% relative humidity. As for the experimental part:
In the present invention, it is very important that the above-mentioned protonically conductive solid should be adsorbed and supported on a finely divided inorganic solid acid.
Incidentally, in this and subsequent Examples, all the values of the volume resistivity were those as measured at a temperature of 23° C. and a relative humidity of 50%, unless otherwise indicated.

Structures can show the parent of a compound that is named as a salt.

Take `c1ccc(-c2ccccn2)nc1` [2,2'-Bis-pyridine]: the “First Stage Base Dissociation Constant (pKb)” value in data set [1] is 9.88.

`Nc1ccncc1` [4-Aminopyridine]: the “First Stage Base Dissociation Constant (pKb)” value in data set [1] is 4.83.

As to `C=CCN` [Allylamine], the “First Stage Base Dissociation Constant (pKb)” value in data set [1] is recorded as 3.51.

Turning to `CCCCCN` [Amylamine], the “First Stage Base Dissociation Constant (pKb)” value in data set [1] is 3.37.

Consider `NC1CCCCC1` [Cyclohexylamine], for which the “First Stage Base Dissociation Constant (pKb)” value in data set [1] was 3.36.

In the case of `CCNCC` [Diethylamine], in data set [1], the “First Stage Base Dissociation Constant (pKb)” value is recorded as 3.02.

In the case of `CNC` [Dimethylamine], the “First Stage Base Dissociation Constant (pKb)” value in data set [1] is recorded as 3.13.

In the case of `CCN` [Ethylamine], the “First Stage Base Dissociation Constant (pKb)” value in data set [1] is 3.37.

`NCCN` [Ethylenediamine sulfate]: the volume resistivity in the data set “volume resistivity” is recorded as 2.74×10^8 .OMEGA.-cm.

Regarding `CCNN` [Ethylhydrazine], the “First Stage Base Dissociation Constant (pKb)” value in data set [1] is on record as 6.29.

As for `N=C(N)N` [Guanidine sulfate], the volume resistivity in the data set “volume resistivity” is listed as 6.69×10^7 .OMEGA.-cm.

As to `C1N2CN3CN1CN(C2)C3` [Hexamethylene-tetraamine succinate], in the data set “volume resistivity”, the volume resistivity is 2.05×10^11 .OMEGA.-cm.

In the case of `NN` [Hydrazine], the “First Stage Base Dissociation Constant (pKb)” value in data set [1] is 6.07.

For `NO` [Hydroxylamine], the “First Stage Base Dissociation Constant (pKb)” value in data set [1] is on record as 8.03.

Consider `CN` [Methylamine], for which, in data set [1], the “First Stage Base Dissociation Constant (pKb)” value was 3.38.

For the compound `CNN` [Methylhydrazine], the “First Stage Base Dissociation Constant (pKb)” value in data set [1] was 6.13.

As to `N=C(N)Nc1ccccc1` [Phenylguanidine], in data set [1], the “First Stage Base Dissociation Constant (pKb)” value is listed as 3.23.

Regarding `C1CNCCN1.O=S(=O)(O)O` [Piperazine sulfate], in “volume resistivity”, the volume resistivity is given as 9.35×10^7 .OMEGA.-cm.

On to `C1CCNCC1` [Piperidine], for which the “First Stage Base Dissociation Constant (pKb)” value in data set [1] is on record as 2.78.

For the compound `C1CCNC1` [Pyrrolidine], the “First Stage Base Dissociation Constant (pKb)” value in data set [1] was 2.73.

Turning to `CN(C)C` [Trimethylamine], the “First Stage Base Dissociation Constant (pKb)” value in data set [1] is 4.24.

In the case of `C1CNC1` [Trimethylene-imine], the “First Stage Base Dissociation Constant (pKb)” value in data set [1] is 2.71.

With `C1CCNCC1.O=S(=O)(O)O` [piperidine sulfate], the volume resistivity in “volume resistivity” is reported as 3.54×10^7 .OMEGA.-cm.
